Numbering of substitutions follows the chain as printed. pEC50, pIC50: −log10 of the molar value. Active and inactive are the calls of the source. The rule behind the calls is not given here.
What was measured:
[1] = target: T1, 5-hydroxytryptamine receptor 3A (Homo sapiens, UniProt P46098); assay: Antagonist activity at human 5HT3A expressed in HEK293 cells incubated for 1 hr by FLIPR assay; format: cell-based
T1 sequence (P46098 whole entry): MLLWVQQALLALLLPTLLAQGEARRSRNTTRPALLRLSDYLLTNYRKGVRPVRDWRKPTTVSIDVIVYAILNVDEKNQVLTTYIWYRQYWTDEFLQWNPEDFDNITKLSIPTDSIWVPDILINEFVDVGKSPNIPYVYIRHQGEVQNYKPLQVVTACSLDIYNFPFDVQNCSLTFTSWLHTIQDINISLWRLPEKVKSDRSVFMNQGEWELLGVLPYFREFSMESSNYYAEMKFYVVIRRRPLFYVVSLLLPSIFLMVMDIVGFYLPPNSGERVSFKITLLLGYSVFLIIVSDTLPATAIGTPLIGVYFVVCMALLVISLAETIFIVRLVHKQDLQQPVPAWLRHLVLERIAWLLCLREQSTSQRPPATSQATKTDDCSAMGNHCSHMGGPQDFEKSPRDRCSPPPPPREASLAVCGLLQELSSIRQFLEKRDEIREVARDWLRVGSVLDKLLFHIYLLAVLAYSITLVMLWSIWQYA

Homo sapiens [2] = species: Homo sapiens; assay: Selectivity ratio of IC50 for human 5HT3A to IC50 for GCS (unknown origin)
[3] = Intrinsic clearance in rat at 5 to 10 mg/kg, po or 0.05 to 2 mg/kg, iv; format: ADME, organism-based; conditions: in vivo, dose 5-10 mg/kg
[4] = Mean residence time in rat at 5 to 10 mg/kg, po or 0.05 to 2 mg/kg, iv; format: ADME, organism-based; conditions: in vivo, dose 5-10 mg/kg
[5] = Bioavailability in rat at 5 to 10 mg/kg, po or 0.05 to 2 mg/kg, iv; format: ADME, organism-based; conditions: in vivo, dose 5-10 mg/kg
[6] = target: T2, Ceramide glucosyltransferase (Mus musculus, UniProt O88693); assay: Inhibition of GCS in mouse fibroblast; format: cell-based
T2 sequence (O88693 whole entry): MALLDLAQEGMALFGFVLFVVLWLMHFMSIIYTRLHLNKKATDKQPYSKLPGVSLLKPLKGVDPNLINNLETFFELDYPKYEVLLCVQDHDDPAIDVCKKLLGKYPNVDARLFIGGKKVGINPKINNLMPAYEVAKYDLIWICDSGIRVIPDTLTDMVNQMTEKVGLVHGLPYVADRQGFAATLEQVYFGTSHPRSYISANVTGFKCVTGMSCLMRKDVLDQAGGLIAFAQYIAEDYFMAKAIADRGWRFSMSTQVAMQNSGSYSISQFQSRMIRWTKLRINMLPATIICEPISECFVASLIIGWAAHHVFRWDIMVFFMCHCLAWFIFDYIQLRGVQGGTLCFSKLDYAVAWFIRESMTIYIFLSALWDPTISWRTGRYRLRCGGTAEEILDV

[7] = Unbound fraction in rat plasma; format: ADME, cell-free
[8] = Unbound fraction in human plasma; format: ADME, cell-free
[9] = Unbound brain-to-plasma concentration ratio in rat at 5 mg/kg, po after 2 hrs; format: ADME, organism-based; conditions: read-out: K(p,uu,brain)
Cytochrome P450 2D6 = Cytochrome P450 2D6 (Homo sapiens, UniProt P10635); assay: Inhibition of CYP2D6 (unknown origin); format: ADME
Sequence of Cytochrome P450 2D6 (P10635 whole entry): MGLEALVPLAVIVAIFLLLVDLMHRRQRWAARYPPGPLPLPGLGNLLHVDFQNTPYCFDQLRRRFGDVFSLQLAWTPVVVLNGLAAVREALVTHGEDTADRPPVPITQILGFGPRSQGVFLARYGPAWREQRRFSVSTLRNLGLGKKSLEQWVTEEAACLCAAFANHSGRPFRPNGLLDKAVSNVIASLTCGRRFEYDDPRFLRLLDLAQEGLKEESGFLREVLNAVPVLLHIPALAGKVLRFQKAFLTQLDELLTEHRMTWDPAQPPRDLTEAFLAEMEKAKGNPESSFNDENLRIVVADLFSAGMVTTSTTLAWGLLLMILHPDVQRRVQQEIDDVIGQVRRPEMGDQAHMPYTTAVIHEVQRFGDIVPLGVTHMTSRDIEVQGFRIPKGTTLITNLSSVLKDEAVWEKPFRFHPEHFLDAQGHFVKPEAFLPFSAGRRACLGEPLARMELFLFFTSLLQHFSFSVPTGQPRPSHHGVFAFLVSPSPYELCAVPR

Homo sapiens [10] = species: Homo sapiens; assay: Inhibition of CYP2C9 (unknown origin) relative to control
[11] = Clearance in rat; format: ADME; conditions: in vivo
[12] = Intrinsic clearance in rat; format: ADME
[13] = Half life in rat; format: ADME; conditions: in vivo
[14] = Bioavailability in rat; format: ADME, organism-based; conditions: in vivo
[15] = Clearance in dog; format: ADME, Canis lupus familiaris; conditions: in vivo
[16] = Half life in dog; format: ADME, Canis lupus familiaris; conditions: in vivo
[17] = Bioavailability in dog; format: ADME, organism-based, Canis lupus familiaris; conditions: in vivo
[18] = target: T3, Ceramide glucosyltransferase (Mus musculus) (UniProt O88693); assay: In vivo inhibition of GCS in C57 mouse assessed as reduction in brain GlcCer d18:1/18:0 concentration at 30 to 100 mg/kg, po measured after 8 hrs by LC-MS/MS method; format: functional, organism-based; conditions: dose 30-100 mg/kg
T3 sequence (whole entry): T2 sequence (O88693 whole entry)

[19] = target: T3, Ceramide glucosyltransferase (Mus musculus); assay: (§1) In vivo inhibition of GCS in C57 mouse assessed as reduction in brain GlcCer d18:1/18:0 concentration measured after 8 hrs by LC-MS/MS method; format: functional
[20] = target: T2, Ceramide glucosyltransferase; assay: as §1; format: functional
[21] = Protection against PFFs induced alpha-synuclein aggregation in human iPSC derived neurons assessed as reduction in phosphorylated S129 alpha-synuclein level at 1000 nM pretreated for 1 day followed by PFFs stimulation and measured after 14 days by immunocytochemistry analysis; format: functional, Neuron; design: scale not given: the % may be the effect or the level left; conditions: time 15 day
Neuron = assay: Protection against PFFs induced lysosomal impairment in human iPSC derived neurons assessed as increase in lysosomal hydrolysis pretreated for 1 day followed by PFFs stimulation and measured after 14 days by immunocytochemistry analysis; format: functional, cell-based; conditions: time 15.0 day
[22] = target: T4, Ceramide glucosyltransferase (Homo sapiens) (UniProt Q16739); assay: (§2) Inhibition of GCS in human iPSC derived neurons assessed as reduction in […] GlcCer levels; format: cell-based; conditions: Neuron
T4 sequence (whole entry): T2 sequence (O88693 whole entry) with Q8L, L13V, V20L, S29A, A131G, S196Y, S251A

[23] = target: T5, Ceramide glucosyltransferase (Homo sapiens, UniProt Q16739); assay: as §2; format: cell-based, Neuron
T5 sequence (Q16739 whole entry): T2 sequence (O88693 whole entry) with Q8L, L13V, V20L, S29A, A131G, S196Y, S251A

[24] = Protection against PFFs induced alpha-synuclein aggregation in human iPSC derived neurons assessed as reduction in phosphorylated S129 alpha-synuclein level pretreated for 1 day followed by PFFs stimulation and measured after 14 days by immunocytochemistry analysis; format: functional, cell-based; conditions: Neuron

SMILES	pIC50 [1]	Ratio IC50 (Homo sapiens [2])	CL [3] [mL/min/kg]	MRT [4] [h]	bioavailability [5] [%]	pIC50 [6]	fraction unbound [7]	fraction unbound [8]	Kp uu at 2 h [9]	pIC50 (Cytochrome P450 2D6)	Emax (Homo sapiens [10]) [%]	clearance [11] [mL/min/kg]	CLint scaled [12] [mL/min/kg]	half-life [13] [min]	bioavailability [14] [%]	clearance [15] [mL/min/kg]	half-life [16] [min]	bioavailability [17] [%]	further results
O=C(N1CCN2CCC1CC2)n1nc(-c2ccc(F)cc2)c2c1COCC2	6.65	64	90	3.5	73	7.68	0.11	0.03	0.4	< 4.30	17	8.5	90	168	73	30	144	21	Activity [18]: Active; Activity [19]: Dose-Dependent Effect; fEC50 [19]: 64 nM; pEC50 [20]: 6.49
Cl.O=C(N1CCN2CCC1CC2)n1nc(-n2cc(C(F)(F)F)cn2)c2c1COCC2	5.71	1100	55	5.3	95	7.77	0.08	0.03	1.3	< 4.30	26	6.1	55	204	95	12	492	48	Activity [21]: 20%; Activity (Neuron): Dose-Dependent Effect; inhibition [22]: Dose-Dependent Effect; pIC50 [23]: 8.77; pIC50 [24]: 7.77

— ChEMBL document CHEMBL5223177, “Pyrazole Ureas as Low Dose, CNS Penetrant Glucosylceramide Synthase Inhibitors for the Treatment of Parkinson's Disease” (ACS Med Chem Lett, 2023)
